The source of these data is paper PMC11585353, “Metatranscriptomics-guided discovery and characterization of a polyphenol-metabolizing gut microbial enzyme” (Cell host & microbe, 2024).

The test concerns T1, Gp Hcdh (Unk-9; G. pamelaeae HCA dehydroxylase).
T1 construct: native untagged enzyme purified from G. pamelaeae 3C grown with HCA (ammonium sulfate, HIC, AEC, SEC); two subunits; catalytic subunit 770 aa; one Mo per protein (bis-MGD); with Hydrocaffeic acid dehydroxylase accessory subunit
The test can be described thus: continuous spectrophotometric assay, methyl viologen oxidation at […] nm, Michaelis-Menten fit of initial rates. The class given is biochemical, Gordonibacter pamelaeae. The following applies: 100 nM enzyme, anaerobic, 50 mM MOPS pH 7.0, 300 mM NaCl, 200 uM methyl viologen, 100 uM sodium dithionite, HCA 0.0625-4 mM.

On to `O=C(O)CCc1ccc(O)c(O)c1` [HCA, 3,4-dihydroxyhydrocinnamic acid], for which the Km is 240 µM.
